Data from publication PMC7876056, “Population Pharmacokinetic Analysis of Yimitasvir in Chinese Healthy Volunteers and Patients With Chronic Hepatitis C Virus Infection” (Frontiers in Pharmacology, 2021).
Where “and” joins values, the source holds several entries; their conditions need not be identical. Equal entries are not always repeated. Where two headings read alike, the source gives them in different places.

How the values were obtained:
[1] = Population pharmacokinetic model (Phoenix NLME, FOCE-ELS) of yimitasvir in Chinese healthy volunteers and HCV infection patients; format: in vivo, human
Method: The current population PK analysis of yimitasvir was performed using rich and sparse PK samples collected from six clinical pharmacology trials [4 phase 1 ([Zhao et al., 2019]), 1 phase 1b ([Zhang et al., 2018]) and 1 phase 2 studies] in Chinese healthy volunteers and HCV-infected patients. Rich sampling entailed serial blood sampling at defined time points, and sparse sampling (single sample) only in phase 2 study entailed blood collection at every study visits. Patients with genotype 1 HCV infection were eligible, while patients with prior use of direct-acting antiviral agents (DAA) for HCV infection treatment were excluded in phase 1b and phase 2 studies.
A fully validated liquid chromatography-tandem mass spectrometry (LC-MS/MS) method determining yimitasvir concentration in phase 1 and phase 1b studies had been reported elsewhere ([Zhang et al., 2018]; [Zhao et al., 2019]).
Plasma concentration of yimitasvir in phase 2 study was analyzed using a validated LC-MS/MS method equipped with a Shimadzu LC-30AD liquid chromatography-SCIEX API6500 mass spectrometer. Chromatographic retention and separation were achieved on a XBridge Peptide BEH C18, 50 × 2.1 mm, 3.5 μm column. Gradient elution was used with 2 mM ammonium acetate in water with 0.1% formic acid as mobile phase A and acetonitrile:methanol (30:70, v:v) as mobile phase B at a flow rate of 0.5 ml min^−1. The column temperature was maintained at 45°C. Quantitation was accomplished in positive mode with precursor-to-production pairs of m/z 428.5→315.3 for yimitasvir and m/z 432.5→319.5 for the internal standard d8-DAG (isotope-labelled yimitasvir), respectively.
Population pharmacokinetic analysis of yimitasvir was performed by Phoenix NLME software (Version 8.1, Certara) using the first-order conditional estimation-extended least squares (FOCE-ELS) method.
The structural model was first tested by fitting a one-compartment or two-compartment model to the log-transformed PK data. Different absorption models including first-order absorption with or without a lag time, sequential zero-first order absorption, transit absorption and saturable Michaelis-Menten absorption model, were also tested. The optimal structural model was selected based on the Akaike Information Criteria (AIC), minimization success, visual inspection of goodness-of-fit plots and individual fit.
Inter-subject variability was estimated by exponential model for PK parameters as follows (Eq. 1): θi=θTV×e^ηi, (1) where θi is the parameter estimation for the ith individual, θTV is the typical value of the parameter estimation in the population, ηi is a random variable which assumed to be normally distributed with a mean of 0 and a variance of ω^2. Proportional error model and proportional plus additive error model were tested as residual error models.
Sigmoidal maximum effect (Emax) (Eq. 2) and linear models (Eq. 3) were tested to quantify the relationship between bioavailability and dose: {F=θF ,Dose≤100 mgF=θF−Fmax×(Dose−100)/(F50+(Dose−100)),Dose>100 mg, (2) where θF is the bioavailability in individuals who received ≤100 mg yimitasvir, which was fixed to 1. Fmax is the maximal reduction in bioavailability and F50 is the dose associated with a half-maximal reduction in bioavailability. {F=θF ,Dose≤100 mgF=θF −Alpha×(Dose−100)/100,Dose>100 mg, (3) where Alpha is a slope term determining the relative change in bioavailability for each 100 mg increase in yimitasvir dose.
Subsequently, different covariates were tested using a stepwise forward inclusion [a decrease in objective function value (OFV) of > 6.63, p < 0.01] and a stricter backward exclusion procedure (an increase in OFV of > 10.83, p < 0.001). […]

[2] = cited from earlier work
[3] = mice; cited from earlier work
[4] = humans; cited from earlier work
[5] = system: P-glycoprotein (P-gp); details: cited from earlier work
[6] = system: cytochrome P450 (CYP) 2C8; details: cited from earlier work
[7] = system: CYP 1A2; details: cited from earlier work
[8] = system: CYP 2C9; details: cited from earlier work
[9] = system: CYP 2D6; details: cited from earlier work
[10] = system: CYP 3A4; details: cited from earlier work
[11] = system: CYP3A4; details: cited from earlier work
[12] = final model estimate (RSE%), food = 2, high-fat meal
[13] = high-fat meal, food effect study, ref Zhao et al., 2019

- Relative bioavailability of 200 mg to 100 mg ([1]; according to the final model): 87.1%
- Relative bioavailability of 400 mg to 100 mg ([1]; according to the final model): 61.3%
- CL/F ∼ Female (covariate coefficient) ([1]; bootstrap mean): −0.250 (−14.6)
- F ∼ Food1 (covariate coefficient) ([1]; bootstrap mean): −0.312 (−34.9)
- F ∼ Food2 (covariate coefficient) ([1]; bootstrap mean): −0.473 (−19.8)
- Ka ∼ Food1 (covariate coefficient) ([1]; bootstrap mean): −1.72 (−10.5)
- Ka ∼ Food2 (covariate coefficient) ([1]; bootstrap mean): −2.43 (−7.4)
- Random effect CL/F (inter-individual variability) ([1]; bootstrap mean): 0.483 (5.8)
- Random effect CL/F ∼ V1/F (covariance) ([1]; bootstrap mean): 0.562 (8.1)
- Random effect V1/F (inter-individual variability) ([1]; bootstrap mean): 0.729 (11.0)
- Residual error σ (proportional) ([1]; bootstrap mean): 0.304 (3.4)
- Td ∼ Patient (covariate coefficient) ([1]; bootstrap mean): −0.403 (−27.9)
- CL/F ([1]; bootstrap mean (n = 1,000)): 13.8 (3.7) l h^−1
- Ka ([1]; bootstrap mean (n = 1,000)): 1.38 (13.7) h^−1
- Q/F ([1]; bootstrap mean (n = 1,000)): 4.04 (16.8) l h^−1
- Td ([1]; bootstrap mean (n = 1,000)): 2.22 (7.2) h
- V1/F ([1]; bootstrap mean (n = 1,000)): 189 (5.6) l
- V2/F ([1]; bootstrap mean (n = 1,000)): 59.1 (9.1) l
- Effect of age and BW on PK properties ([1]; covariate screening): no effect
- Decrease of bioavailability (F) for each 100 mg dose increase ([1]; dose > 100 mg, linear model): 12.9%
- Covariance of inter-individual variability of CL/F and V1/F ([1]; final model): 56.5%
- Inter-individual variability for CL/F ([1]; final model): 48.5%
- Inter-individual variability for V1/F ([1]; final model): 73.6%
- CL/F ∼ Female (covariate coefficient) ([1]; final model estimate (RSE%)): −0.251 (−14.2)
- Q/F ([1]; final model estimate (RSE%)): 3.96 (14.7) l h^−1
- Random effect CL/F (inter-individual variability) ([1]; final model estimate (RSE%)): 0.485 (3.8)
- Random effect CL/F ∼ V1/F (covariance) ([1]; final model estimate (RSE%)): 0.565 (5.1)
- Random effect V1/F (inter-individual variability) ([1]; final model estimate (RSE%)): 0.736 (6.9)
- Residual error σ (proportional) ([1]; final model estimate (RSE%)): 0.305 (0.7)
- Td ∼ Patient (covariate coefficient) ([1]; final model estimate (RSE%)): −0.416 (−10.7)
- V2/F ([1]; final model estimate (RSE%)): 58.6 (6.9) l
- Ka ∼ Food1 (covariate coefficient) ([1]; final model estimate (RSE%), food = 1, evening, fasted at least 4 h after dinner): −1.71 (−5.5)
- F ∼ Food1 (covariate coefficient) ([1]; final model estimate (RSE%), food = 1, fasted at least 4 h): −0.341 (−26.3)
- F ∼ Food2 (covariate coefficient) [1, 12]: −0.485 (−31.2)
- Ka ∼ Food2 (covariate coefficient) [1, 12]: −2.40 (−3.7)
- Td (duration of zero-order absorption) ([1]; final model estimate (RSE%), healthy volunteers): 2.17 h and 2.17 (4.4) h
- Higher CL/F in male subjects than females ([1]; human, in vivo): 22.2%
- Zero-order absorption duration (Td) ([1]; patients): 1.43 h
- Decrease of F by high-fat meal ([1]; vs fasted): 38.5%
- Decrease of Ka by high-fat meal ([1]; vs fasted): 90.9%
Compound: COC(=O)NC(C(=O)N1CCCC1c1ncc(-c2ccc(-c3ccc(-c4ccc5nc(C6CCCN6C(=O)C(NC(=O)OC)C(C)C)[nH]c5c4)c4c3C3CCC4C3)cc2)[nH]1)C(C)C (centres unmarked) [yimitasvir]
- CL/F ∼ ALT (covariate coefficient, power) ([1]; bootstrap mean): −0.0955 (−15.3)
- CL/F ∼ ALT (covariate coefficient, power) ([1]; final model estimate (RSE%), baseline ALT normalised to median): −0.0950 (−21.2)
- Ka ([1]; final model estimate (RSE%), first-order absorption rate, typical healthy male volunteer, ALT 31.6 IU l^−1, fasted): 1.31 (7.2) h^−1
- CL/F (apparent oral clearance) ([1]; final model estimate (RSE%), typical healthy male volunteer, ALT 31.6 IU l^−1, fasted): 13.8 l h^−1 and 13.8 (4.1) l h^−1
- Vd/F ([1]; human, plasma, oral, final model estimate (RSE%), typical healthy male volunteer, ALT 31.6 IU l^−1, fasted, read-out: V1/F (central volume of distribution)): 188 L
- Decrease in AUC [2, 13]: ~50%
- Decrease in Cmax [2, 13]: ~63%
- Tmax ([2]; high-fat meal, ref Zhao et al., 2019): 5 to 12 h
- Terminal half-life (t1/2) ([2]; human, in vivo): 13.4 to 19.7 h
- Dose proportionality of exposure ([2]; multiple ascending dose study, 100–400 mg once daily for seven days): less than dose-proportional
- Steady state achieved ([2]; once daily dosing regimen): ≤ 5 days
- Accumulation ratio ([2]; once daily dosing): 1.32–1.34
- Major route of elimination ([2]; ref Zhao et al., 2019): fecal excretion of parent drug
- Dose proportionality of AUC and Cmax ([2]; single ascending dose study, healthy volunteers, ref Zhao et al., 2019): increased less than proportionally
- Recovered in urine as the parent drug ([2]; through 7 days post-dose, ref Zhao et al., 2019): Less than 0.04%
- Metabolism in hepatic microsomes [3]: No metabolism
- Metabolism in hepatic microsomes [4]: No metabolism
- P-gp inhibition [5]: inhibitor
- P-gp substrate [5]: substrate
- Inhibition of CYP2C8 [6]: weak inhibitor
- Inhibition of CYP1A2 [7]: does not inhibit
- Inhibition of CYP2C9 [8]: does not inhibit
- Inhibition of CYP2D6 [9]: does not inhibit
- Inhibition of CYP3A4 [10]: does not inhibit
- Induction of CYP3A4 [11]: may be a weak inducer
